Experimental data taken from patent US5824692A (priority 1995, dated 1998).

Test system: dopamine release, synaptosomes from the striatal area of rat brain
Test: Dopamine release from rat striatal synaptosomes
Format: biochemical, rat (Sprague-Dawley)
Details: [3H]-dopamine release, relative to (S)-(-)-nicotine
Experimental: Determination of Dopamine Release
Dopamine release was measured by preparing synaptosomes from the striatal area of rat brain obtained from Sprague-Dawley rats generally according to the procedures set forth by Nagy et al., J. Neurochem., Vol. 43, pp. 1114-1123 (1984). Striata from 4 rats were homogenized in 2 ml of 0.32M sucrose buffered with 5 mM HEPES (pH 7.5), using a glass-Teflon tissue grinder. The homogenate was diluted to 5 ml with additional homogenization solution and centrifuged at 1,000 x g for 10 min. This procedure was repeated on the new pellet and the resulting supernatant was centrifuged at 12,000 x g for 20 min. A 3 layer discontinuous Percoll gradient consisting of 16 percent, 10 percent and 7.5 percent Percoll in HEPES-buffered sucrose was made with the final pellet dispersed in the top layer. After centrifugation at 15,000 x g for 20 min., the synaptosomes were recovered above the 16 percent layer with a Pasteur pipette, diluted with 8 ml of perfusion buffer (128 mM NaCl, 2.4 mM KCl, 3.2 mM CaCl2, 1.2 mM KH2 PO4, 1.2 mM MgSO4, 25 mM HEPES pH 7.4, 10 mM dextrose, 1 mM ascorbate, 0.01 mM pargyline), and centrifuged at 15,000 x g for 20 min. The new pellet was collected and re-suspended in perfusion buffer. The synaptosome suspension was incubated for 10 min. at 37° C. [^3 H]-Dopamine (Amersham, 40-60 Ci/mmol) was added to the suspension to give a final concentration of 0.1 uM, and the suspension was incubated for another 5 min. Using this method, 30 to 90 percent of the dopamine was taken up into the synaptosomes, as determined by scintillation counting following filtration through glass fiber filters soaked with 0.5 percent polyethyleneimine. A continuous perfusion system was used to monitor release following exposure to each ligand. Synaptosomes were loaded onto glass fiber filters (Gelman type A/E). Perfusion buffer was dripped onto the filters (0.2-0.3 ml/min.) and pulled through the filters with a peristaltic pump. Synaptosomes were washed with perfusion buffer for a minimum of 20 min. before addition of the ligand. After the addition of 0.2 ml of a solution containing various concentrations of ligand, the perfusate was collected into scintillation vials at 1 min. intervals and the dopamine released was quantified by scintillation counting. Peaks of radioactivity released above background were summed and the average basal release during that time was subtracted from the total.

| Compound | Dopamine Release Emax [% nicotine] |
| --- | --- |
| CNCC/C=C\c1cccnc1 [Sample No. 5, (Z)-metanicotine] | 88 |
| CNCC/C=C/c1ccc(C)nc1 [Sample No. 6, (E)-N-methyl-4-[3-(6-methylpyrindin)yl]-3-butene-1-amine] | 60 |
| NCC/C=C/c1cncnc1.O=C(O)/C=C/C(=O)O [Sample No. 1, (E)-4-(5-pyrimidinyl)-3-butene-1-amine monofumarate] | 113 |
| CN1CCC[C@H]1c1cccnc1 [Sample No. C-1, (S)-(-)-nicotine, reference compound] | 100 |
| CNCC/C=C/c1cncnc1 [Sample No. 2, (E)-N-methyl-4-(5-pyrimidinyl)-3-butene-1-amine] | 77 |
| COc1cncc(/C=C/CCN)c1 [Sample No. 3, (E)-4-[3-(5-methoxypyridin)yl]-3-butene-1-amine monofumarate] | 95 |
| CNCC/C=C/c1cccnc1 [Sample No. C-2, (E)-metanicotine, reference compound] | 80 |
| CNCCC#Cc1cccnc1 [Sample No. 4, N-Methyl-4-(3-pyridinyl)-3-butyne-1-amine] | 87 |
